Data from patent publication US20180353505A1, “COMPATIBLE SOLUTE OR SOLUTE MIXTURE FOR USE IN THE PREVENTION OR TREATMENT OF DISEASES HAVING BARRIER DEFECTS IN EPITHELIAL TISSUES” (bitop AG, priority 2015, published 2018).
Several values for one entry are separate records, joined by “and”; a condition that tells them apart may be missing. Equal values may be shown once.

Experiments:
[1] = tested on: epithelial cells of the oral mucosa (TR146); assay: TEER of TR146 monolayer after overnight incubation and 0.005% SDS stress (FIG. 3); type: cell-based, human; conditions: then 0.005% SDS
Experimental: (§1) A defined strength (U) of a direct current (DC) is applied between two electrodes E1 and E2 for determination of TEER, wherein the single-layered cell layer (monolayer) is arranged between the two electrodes (FIG. 1), such that the applied direct current (DC) flows through the cells. The measurement of TEER is made by an epithelial voltmeter (EVOM2). The resulting current I is measured according to the ohmic resistance R, wherein R=U/I (Benson K, Cramer S, Galla H J (2013) Impedance-based cell monitoring: Barrier properties and beyond. FluidsBarriers, 10:5.). […]
(§2) The intact epithelial monolayer was respectively controlled by a TEER measurement. If no increase were measured in the TEER over two days, the epithelial cells have formed an intact epithelial monolayer having intact epithelial barrier (selective permeability barrier).
In order to subsequently measure the effect of ectoine on membrane stability under the influence of chemicals, an intact epithelial monolayer of epithelial cells of the oral mucosa (TR146) were incubated in cell culture medium with PBS (control), with 50 mM ectoine and with 0.1% lecithin (positive control) over night. Subsequently, stress treatment was made with 0.005% SDS and change of the transepithelial electric resistance [Ohm] was monitored hourly (FIG. 3).

[2] = tested on: epithelial cells of oral mucosa (TR146); assay: TEER of TR146 monolayer after 12 h incubation, no stress (FIG. 2); type: cell-based, human
Experimental: A defined strength (U) of a direct current (DC) is applied between two electrodes E1 and E2 for determination of TEER, wherein the single-layered cell layer (monolayer) is arranged between the two electrodes (FIG. 1), such that the applied direct current (DC) flows through the cells. The measurement of TEER is made by an epithelial voltmeter (EVOM2). The resulting current I is measured according to the ohmic resistance R, wherein R=U/I (Benson K, Cramer S, Galla H J (2013) Impedance-based cell monitoring: Barrier properties and beyond. FluidsBarriers, 10:5.).
For this purpose, in in vitro experiments, epithelial tissues were sown on special cell culture carrier having a membrane (ThinCerts, pore size 0.4 μm) and cultured to a closed, single-layered cell layer (synonymously epithelial monolayer) on the membrane (FIG. 1).
as §2
In order to measure effects of ectoine on barrier function, in particular membrane integrity, TR146 cells of an intact epithelial monolayer were incubated in cell culture medium with PBS (control), with 50 mM ectoine and with 0.1% lecithin (positive control) for 12 hours (h).

[3] = tested on: human keratinocytes (HaCaT); assay: Allergy prevention assay (APA), OVA penetration, HaCaT monolayer; type: cell-based; conditions: OVA + 10 mM ectoine
Excerpt: (§3) The cell culture vessel (6) comprises an inner (7) and an outer (5) reservoir, wherein the two compartment are partitioned by a transparent ThinCerts membrane (5) having a pore size of 0.4 μm. This pore size allows for cytokine and protein movement between the outer and inner reservoir (FIG. 6.) Eukaryotic cells may not pass through this membrane thus forming a single-layered closed cell layer which covers the whole membrane. In doing so, an arrangement is achieved by the experimental setup which reflects the apical side (outer reservoir) and basolateral side (inner reservoir within the inset) of epithelial cells. However, allergens, such as e.g. ovalbumin (OVA), may pass the membrane without problems due to their low molecule size.
(§4) If a closed epithelial cell layer is present, OVA may only pass this membrane barrier through “gaps”, tight junction or transcytosis from the apical to the basolateral side. […]
(§5) The cells of the respective cell line (see Table 3) were cultivated on a membrane (3) (FIG. 6) until formation of a closed single-layered cell layer (2) (synonymously epithelial monolayer). […] Subsequently, the OVA content was measured in the inner and outer reservoir by means of OVA-specific ELISA and the relative penetration of the epithelial monolayer with OVA in pretreated and non-treated cells was determined.

[4] = tested on: Claudin-1; assay: Claudin-1 expression in HaCaT monolayer after heat stress (ELISA); type: cell-based, human
Experimental: The HaCaT cell line was cultured in a plastic cell culture vessel until a closed single-layered cell layer (HaCaT monolayer) was formed. Subsequently, the monolayer was pretreated with 50 mM or 100 mM ectoine in cell culture medium for 6 hours (h). After pretreatment, temperature treatment of the cells was made at 44° C. for 30 min. After heat stress, the monolayer was again incubated in the incubator at 37° C. for 24 hours. Subsequently, the HaCaT monolayer was harvested and, after lysis by means of cryoshock (freezing, unfreezing and scraping with spatula), the lysate was analysed for Claudin-1 by means of ELISA.

[5] = tested on: human nasal mucosa epithelial cells (RPMI-2650); assay: Allergy prevention assay (APA), OVA penetration, RPMI-2650 monolayer; type: cell-based
Excerpt: as §3, §4, §5

[6] = tested on: HaCaT (drying stress); assay: Allergy prevention assay (APA) with drying stress, HaCaT monolayer; type: cell-based, human
Excerpt: as §3, §4
The cells of the respective cell line (see Table 3) were cultivated on a membrane (3) (FIG. 6) until formation of a closed single-layered cell layer (2) (synonymously epithelial monolayer). […] Subsequently, the OVA content was measured in the inner and outer reservoir by means of OVA-specific ELISA and the relative penetration of the epithelial monolayer with OVA in pretreated and non-treated cells was determined. […]

[7] = tested on: porcine renal epithelial cells (LLC-PK1); assay: TEER of LLC-PK1 monolayer after overnight incubation and BAK stress (FIG. 4); type: cell-based; conditions: LLC-PK1, 50 mM ectoine over night, then BAK stress
Experimental: as §1, §2
Additionally, an intact epithelial monolayer of porcine renal epithelial cells (LLC-PK1) was also incubated in cell culture medium with PBS (control), with 50 mM ectoine and with 0.1% lecithin (positive control) over night. Subsequently, stress treatment was made with 0.001% BAK and change of the transepithelial electric resistance [Ohm] was monitored hourly (FIG. 4).

[8] = tested on: rat bronchial epithelial cells (RLE); assay: Allergy prevention assay (APA), OVA penetration, RLE monolayer; type: cell-based
Excerpt: as §3, §4, §5

[9] = tested on: rabbit corneal epithelial cells (SIRC); assay: Allergy prevention assay (APA), OVA penetration, SIRC monolayer; type: cell-based
Excerpt: as §3
If a closed epithelial cell layer is present, OVA may only pass this membrane barrier through “gaps”, tight junction or transcytosis from the apical to the basolateral side. (Ding L, Zhang Y, Jiang Y, Wang L, Liu B, Liu J (2014) Transport of egg white ACE-Inhibitory peptide, Gln-Ile-Gly-Leu-Phe, in human intestinal Caco-2 cell monolayers with cytoprotective effect. J Agric Food Chem (Epub ahead of print)).
The cells of the respective cell line (see Table 3) were cultivated on a membrane (3) (FIG. 6) until formation of a closed single-layered cell layer (2) (synonymously epithelial monolayer). Subsequently, the epithelial monolayer was pretreated with ectoine (10, 50, 100 mM) in cell culture medium for 6 hours. After pretreatment with ectoine, the epithelia monolayer was incubated with 250 μg/ml of the allergen OVA (FIG. 6) over night. Subsequently, the OVA content was measured in the inner and outer reservoir by means of OVA-specific ELISA and the relative penetration of the epithelial monolayer with OVA in pretreated and non-treated cells was determined.

[10] = tested on: human keratinocytes (HaCaT); assay: TEER of HaCaT monolayer after overnight incubation and air drying (FIG. 5); type: cell-based; conditions: preincubation with ectoine (50/100 mM), air drying 5 min at RT, rehydration, 24 h with OVA
Experimental: as §1, §2
In a further experiment, an intact epithelial monolayer of human keratinocytes (HaCaT) was also incubated in cell culture medium with PBS (control), with 50 mM ectoine and with 100 mM ectoine over night. […] After air drying at RT under sterile conditions, the cells were overlaid with medium including OVA allergen (250 μg/ml) and incubated at 37° C. in the incubator for 24 hours and subsequently the TEER value was measured.

[11] = tested on: epithelial cells of the oral mucosa (TR146); assay: Allergy prevention assay (APA), OVA penetration, TR146 monolayer; type: cell-based, human; conditions: TR146, OVA + 100 mM ectoine
Excerpt: as §3, §4, §5

| Molecule | TEER ([1]; TR146, 0.1% lecithin over night) | TEER value ([2]; TR146, 0.1% lecithin (positive control)) | TEER ([1]; TR146, 50 mM ectoine over night) | Penetrations protection (as compared to PBS) [%] +/− SD [3] | Claudin-1 expression, factor over medium and PBS without ectoine ([4]; 100 mM ectoine, 24 hours) | Claudin-1 expression [Claudin-1] +/− SD ([4]; Ectoine 100 mM 6 h, 44° C. 30 min, 24 h at 37° C.) | Penetrations protection (as compared to PBS) [%] +/− SD ([5]; OVA + 10 mM ectoine) | Penetrations protection (as compared to PBS) [%] +/− SD ([5]; OVA + 100 mM ectoine) | Penetrations protection (as compared to PBS) [%] +/− SD ([6]; OVA + 50 mM ectoine) | Penetrations protection (as compared to PBS) [%] +/− SD ([6]; OVA + 100 mM ectoine) | Effect on TEER / membrane stability [7] | Penetrations protection (as compared to PBS) [%] +/− SD ([8]; OVA + 50 mM ectoine) | Penetrations protection (as compared to PBS) [%] +/− SD ([8]; OVA + 100 mM ectoine) | TEER value ([2]; TR146, 50 mM ectoine) | Penetrations protection (as compared to PBS) [%] +/− SD ([9]; OVA + 10 mM ectoine) | Penetrations protection (as compared to PBS) [%] +/− SD ([9]; OVA + 50 mM ectoine) | Penetrations protection (as compared to PBS) [%] +/− SD ([9]; OVA + 100 mM ectoine) | TEER [10] | Penetrations protection (as compared to PBS) [%] +/− SD [11] |
| --- | --- | --- | --- | --- | --- | --- | --- | --- | --- | --- | --- | --- | --- | --- | --- | --- | --- | --- | --- |
| lecithin [reference compound] | 225 Ohm | 225 Ohm | – | – | – | – | – | – | – | – | – | – | – | – | – | – | – | – | – |
| CC1=NC(C(=O)O)CCN1 (stereo not shown) [ectoine, 1,4,5,6-tetrahydro-2-methyl-4-pyrimidine carboxylic acid] | – | – | 215 Ohm | −0.61 +/− 0.1% | 3 | 0.22 ng/ml +/− 0.006 | 23.5 +/− 17.1% | up to 50% | 12% and 8.1 +/− 8.01% | 11.6 +/− 6.25% | stabilization of the membrane of epithelial cells LLC-PK1 is already achieved | −6.3 +/−7.91^ % | −124.5 +/− 3.72% | 215 Ohm | 0 +/− 11.52% | 16.3 +/− 2.31% | up to 50% | approx. 180 Ohm | 13.44 +/− 7.69% |
